Source: patent US10287252B2, “Inhibitors of tryptophan-2,3-dioxygenase or indoleamine-2,3-dioxygenase” (IOmet Pharma Ltd., priority 2014, dated 2019)

Legend:
TDO [1] = target: T1, TDO (Homo sapiens, UniProt P48775); experiment: hTDO biochemical coupled assay; conditions: 330 μM L-tryptophan, coupled with kynurenine formamidase
Method: (§1) Exemplary compounds of the invention were prepared, and tested to determine their effect as TDO and/or IDO inhibitors. Two different assays were employed: 1. a cell-based assay for detecting the effect of test compounds on kynurenine production in two different cancer cell types. This assay utilised cancer cells which expressed either TDO or IDO and as such was used as a means of testing compound activity at these two enzymes in a cell-based context. 2. a TDO and IDO biochemical coupled assay which utilised recombinantly produced and purified TDO and IDO enzymes in combination with the enzyme formamidase. This coupled enzyme system allowed conversion of N-formylkynurenine produced by TDO or IDO activity to kynurenine which was then quantified by fluorescence following addition of Erhlich's Reagent The protocols for these are set out below.
(§2) TDO and IDO Biochemical Coupled Assay
(§3) Recombinant human IDO or TDO was incubated in 50 mM KPO4 (pH 7.0), 0.5 mM EGTA, 0.5 mM EDTA, 0.05% Triton™ X100, 20 mM ascorbate, 10 μM methylene blue, 500 U/ml catalase, 50 μg/ml KynB (kynurenine formamidase). TDO assays were carried out in the presence of 330 μM L-tryptophan, while IDO assays had the addition of 45 μM L-tryptophan. After incubation for 17 minutes at room temperature the reactions were stopped by the addition of Erhlich's reagent and incubated at room temperature for 5 minutes before the fluorescence was read (Ex475, Em530).

IDO [2] = target: T2, IDO (Homo sapiens, UniProt P14902); experiment: hIDO biochemical coupled assay; conditions: 45 μM L-tryptophan, coupled with kynurenine formamidase
T2 sequence (P14902 whole entry): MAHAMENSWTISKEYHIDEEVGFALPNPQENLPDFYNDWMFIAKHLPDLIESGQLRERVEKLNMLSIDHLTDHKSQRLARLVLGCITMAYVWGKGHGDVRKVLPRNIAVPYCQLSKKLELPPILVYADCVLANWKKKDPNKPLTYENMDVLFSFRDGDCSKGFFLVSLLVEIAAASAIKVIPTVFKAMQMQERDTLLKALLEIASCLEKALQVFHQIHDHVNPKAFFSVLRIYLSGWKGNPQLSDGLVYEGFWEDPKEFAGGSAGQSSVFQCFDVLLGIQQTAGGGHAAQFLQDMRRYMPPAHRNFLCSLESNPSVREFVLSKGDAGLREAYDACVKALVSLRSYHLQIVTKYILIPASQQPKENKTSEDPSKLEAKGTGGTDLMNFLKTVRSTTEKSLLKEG
Method: as §1, §2, §3

TDO [3] = target: T1, TDO; experiment: A172 Kynurenine cell based assay; design: This assay utilised cancer cells which expressed either TDO or IDO; endogenous in cells; host or cells: A172 (human glioblastoma); conditions: A172 (human glioblastoma) cells, 500 μM L-tryptophan, 48 hours, kynurenine by Erhlich's reagent
Method: as §1
(§4) Cell Based Assay for Detection of Kynurenine Produced by TDO and/or IDO
(§5) A172 (human glioblastoma) and SKOV3 (human ovarian adenocarcinoma) cells were seeded in a 96 well plate at 30,000 or 40,000 cells per well respectively in phenol red-free RPMI supplemented with 10% FCS, 2 mM L-glutamine and 500 μM L-tryptophan. IDO expression was induced in the SKOV3 cells by the addition of 500 ng/ml IFN-γ. Cells were incubated at 37° C. with or without the addition of test compound. After 48 hours, the cells were removed by centrifugation and Erhlich's reagent was added to the supernatant. The Erhlich's reagent was incubated for 5 minutes before the absorbance was read at 490 nm.

IDO [4] = target: T2, IDO; experiment: SKOV3 Kynurenine cell based assay; design: IDO expression was induced in the SKOV3 cells by the addition of 500 ng/ml IFN-γ; endogenous in cells; host or cells: SKOV3 (human ovarian adenocarcinoma), induced with IFN-γ; conditions: SKOV3 (human ovarian adenocarcinoma) cells, IDO induced by 500 ng/ml IFN-γ, 500 μM L-tryptophan, 48 hours
Method: as §1, §4, §5

T1 sequence (P48775 whole entry): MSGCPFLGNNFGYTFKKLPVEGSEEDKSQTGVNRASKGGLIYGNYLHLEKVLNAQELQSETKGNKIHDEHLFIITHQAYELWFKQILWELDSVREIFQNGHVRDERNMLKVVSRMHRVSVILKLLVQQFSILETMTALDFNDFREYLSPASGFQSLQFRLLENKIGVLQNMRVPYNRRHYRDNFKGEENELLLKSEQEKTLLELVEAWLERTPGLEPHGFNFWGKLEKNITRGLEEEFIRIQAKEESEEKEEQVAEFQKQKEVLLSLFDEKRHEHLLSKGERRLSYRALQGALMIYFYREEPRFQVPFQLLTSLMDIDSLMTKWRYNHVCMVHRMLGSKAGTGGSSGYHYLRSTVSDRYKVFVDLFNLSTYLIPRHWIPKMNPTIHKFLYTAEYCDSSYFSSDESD

Cc1cc2c(NS(=O)(=O)c3ccccc3)cccc2nn1 [Compound 1]
hTDO biochemical assay pIC50 (TDO [1]): ++ (++ = pIC50 4.50-5.49) | hIDO biochemical assay pIC50 (IDO [2]): ++ (++ = pIC50 4.50-5.49) | A172 Kynurenine cell based assay pIC50 (TDO [3]): + (+ = pIC50 4.00-4.49) | SKOV3 Kynurenine cell based assay pIC50 (IDO [4]): + (+ = pIC50 4.00-4.49)

Cc1cc2c(NC(=O)c3ccc4ncccc4c3)cccc2nn1 [Compound 2]
hTDO biochemical assay pIC50 (TDO [1]): ++ (++ = pIC50 4.50-5.49) | hIDO biochemical assay pIC50 (IDO [2]): +/− (+/− = pIC50 <4.00) | A172 Kynurenine cell based assay pIC50 (TDO [3]): + (+ = pIC50 4.00-4.49) | SKOV3 Kynurenine cell based assay pIC50 (IDO [4]): + (+ = pIC50 4.00-4.49)

Cc1cc2c(NC(=O)c3ccc4ccccc4n3)cccc2nn1 [Compound 3]
hTDO biochemical assay pIC50 (TDO [1]): + (+ = pIC50 4.00-4.49) | hIDO biochemical assay pIC50 (IDO [2]): +/− (+/− = pIC50 <4.00) | A172 Kynurenine cell based assay pIC50 (TDO [3]): + (+ = pIC50 4.00-4.49) | SKOV3 Kynurenine cell based assay pIC50 (IDO [4]): +/− (+/− = pIC50 <4.00)

CC(C)CS(=O)(=O)Nc1cccc2cnccc12 [Compound 4]
hTDO biochemical assay pIC50 (TDO [1]): +++ (+++ = pIC50 ≥5.50) | hIDO biochemical assay pIC50 (IDO [2]): ++ (++ = pIC50 4.50-5.49) | A172 Kynurenine cell based assay pIC50 (TDO [3]): + (+ = pIC50 4.00-4.49) | SKOV3 Kynurenine cell based assay pIC50 (IDO [4]): +/− (+/− = pIC50 <4.00)

O=C(Nc1cccc2cnccc12)C1COc2ccccc2C1 (stereo not drawn) [Compound 6]
hTDO biochemical assay pIC50 (TDO [1]): +++ (+++ = pIC50 ≥5.50) | hIDO biochemical assay pIC50 (IDO [2]): +++ (+++ = pIC50 ≥5.50) | A172 Kynurenine cell based assay pIC50 (TDO [3]): + (+ = pIC50 4.00-4.49) | SKOV3 Kynurenine cell based assay pIC50 (IDO [4]): ++ (++ = pIC50 4.50-5.49)

O=S(=O)(Nc1cccc2cnccc12)c1ccccc1 [Compound 9]
hTDO biochemical assay pIC50 (TDO [1]): ++ (++ = pIC50 4.50-5.49) | hIDO biochemical assay pIC50 (IDO [2]): ++ (++ = pIC50 4.50-5.49) | A172 Kynurenine cell based assay pIC50 (TDO [3]): +++ (+++ = pIC50 ≥5.50) | SKOV3 Kynurenine cell based assay pIC50 (IDO [4]): ++ (++ = pIC50 4.50-5.49)

COc1cccc(S(=O)(=O)Nc2cccc3cnccc23)c1 [Compound 14]
hIDO biochemical assay pIC50 (IDO [2]): ++ (++ = pIC50 4.50-5.49) | A172 Kynurenine cell based assay pIC50 (TDO [3]): +++ (+++ = pIC50 ≥5.50) | SKOV3 Kynurenine cell based assay pIC50 (IDO [4]): ++ (++ = pIC50 4.50-5.49)

O=S(=O)(Nc1cccc2cnccc12)c1cccc2ccccc12 [Compound 16]
hTDO biochemical assay pIC50 (TDO [1]): + (+ = pIC50 4.00-4.49) | hIDO biochemical assay pIC50 (IDO [2]): ++ (++ = pIC50 4.50-5.49) | A172 Kynurenine cell based assay pIC50 (TDO [3]): ++ (++ = pIC50 4.50-5.49) | SKOV3 Kynurenine cell based assay pIC50 (IDO [4]): ++ (++ = pIC50 4.50-5.49)

O=S(=O)(NC1CCCc2cnccc21)c1ccccc1 (stereo not drawn) [Compound 49]
A172 Kynurenine cell based assay pIC50 (TDO [3]): +/− (+/− = pIC50 <4.00) | SKOV3 Kynurenine cell based assay pIC50 (IDO [4]): + (+ = pIC50 4.00-4.49)

O=S(=O)(NC1CCCc2cnccc21)c1ccc(-c2ccccc2)cc1 (stereo not drawn) [Compound 50]
A172 Kynurenine cell based assay pIC50 (TDO [3]): +/− (+/− = pIC50 <4.00) | SKOV3 Kynurenine cell based assay pIC50 (IDO [4]): +++ (+++ = pIC50 ≥5.50)

O=S(=O)(NC1CCCc2cnccc21)c1ccc(Cl)cc1 (stereo not drawn) [Compound 51]
A172 Kynurenine cell based assay pIC50 (TDO [3]): +/− (+/− = pIC50 <4.00) | SKOV3 Kynurenine cell based assay pIC50 (IDO [4]): ++ (++ = pIC50 4.50-5.49)

CC(C)Oc1ccc(S(=O)(=O)NC2CCCc3cnccc32)cc1 (stereo not drawn) [Compound 52]
IC50 (TDO [3]; read-out: A172 Kynurenine cell based assay pIC50 (converted)): > 100 µM | IC50 (IDO [4]; read-out: SKOV3 Kynurenine cell based assay pIC50 (converted)): ≤ 3.16 µM

CC(C)Oc1ccc(S(=O)(=O)Nc2cccc3ccncc23)cc1 [Compound 53]
A172 Kynurenine cell based assay pIC50 (TDO [3]): + (+ = pIC50 4.00-4.49) | SKOV3 Kynurenine cell based assay pIC50 (IDO [4]): + (+ = pIC50 4.00-4.49)

O=S(=O)(Nc1cccc2ccncc12)c1ccc(-c2ccccc2)cc1 [Compound 54]
A172 Kynurenine cell based assay pIC50 (TDO [3]): + (+ = pIC50 4.00-4.49) | SKOV3 Kynurenine cell based assay pIC50 (IDO [4]): + (+ = pIC50 4.00-4.49)

O=S(=O)(Nc1cccc2ccncc12)c1ccc(Cl)cc1 [Compound 55]
A172 Kynurenine cell based assay pIC50 (TDO [3]): + (+ = pIC50 4.00-4.49) | SKOV3 Kynurenine cell based assay pIC50 (IDO [4]): ++ (++ = pIC50 4.50-5.49)

O=S(=O)(Nc1cccc2ccncc12)c1ccccc1 [Compound 56]
hTDO biochemical assay pIC50 (TDO [1]): +/− (+/− = pIC50 <4.00) | hIDO biochemical assay pIC50 (IDO [2]): + (+ = pIC50 4.00-4.49) | A172 Kynurenine cell based assay pIC50 (TDO [3]): +/− (+/− = pIC50 <4.00) | SKOV3 Kynurenine cell based assay pIC50 (IDO [4]): + (+ = pIC50 4.00-4.49)

O=S(=O)(Nc1cc(Cl)cc2cnccc12)c1ccc(Cl)cc1 [Compound 57]
hTDO biochemical assay pIC50 (TDO [1]): +/− (+/− = pIC50 <4.00) | hIDO biochemical assay pIC50 (IDO [2]): + (+ = pIC50 4.00-4.49) | A172 Kynurenine cell based assay pIC50 (TDO [3]): +/− (+/− = pIC50 <4.00) | SKOV3 Kynurenine cell based assay pIC50 (IDO [4]): ++ (++ = pIC50 4.50-5.49)

CC(C)Oc1ccc(S(=O)(=O)Nc2cc(Cl)cc3cnccc23)cc1 [Compound 58]
hTDO biochemical assay pIC50 (TDO [1]): +/− (+/− = pIC50 <4.00) | hIDO biochemical assay pIC50 (IDO [2]): + (+ = pIC50 4.00-4.49) | A172 Kynurenine cell based assay pIC50 (TDO [3]): +/− (+/− = pIC50 <4.00) | SKOV3 Kynurenine cell based assay pIC50 (IDO [4]): ++ (++ = pIC50 4.50-5.49)
